Legend:
[1] = target: T1, LXRα full length (FL) (Homo sapiens, UniProt Q13133); test: LXR Gal4 reporter transient transfection assay (M2H), Gal4α FL; type: cell-based; conditions: HEK293 cells; read-out: M2H Gal4α FL activity range (EC50)
T1 construct: the full length (FL) proteins of LXRα (amino acids 1-447); NP005684; expressed in transfected cells; host or cells: HEK293
T1 sequence (Q13133 1-447): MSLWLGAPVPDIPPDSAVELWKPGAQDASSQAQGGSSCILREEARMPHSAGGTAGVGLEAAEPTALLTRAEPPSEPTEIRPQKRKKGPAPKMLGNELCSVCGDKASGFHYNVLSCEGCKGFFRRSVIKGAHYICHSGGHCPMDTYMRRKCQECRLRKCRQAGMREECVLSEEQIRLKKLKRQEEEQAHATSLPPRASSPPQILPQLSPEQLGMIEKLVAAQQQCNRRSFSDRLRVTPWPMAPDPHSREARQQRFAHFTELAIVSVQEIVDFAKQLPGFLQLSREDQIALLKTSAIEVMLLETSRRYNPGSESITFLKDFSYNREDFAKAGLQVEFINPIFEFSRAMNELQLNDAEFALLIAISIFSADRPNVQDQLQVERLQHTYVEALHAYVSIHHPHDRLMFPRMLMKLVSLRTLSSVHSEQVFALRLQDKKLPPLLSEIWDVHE
Method: (§1) The tested compounds were usually dissolved, tested and stored as 20 mM stock solutions in DMSO. Since sulfonyl acetic acid derivatives tend to decarboxylate under these conditions, these stock solutions were prepared, tested and stored as 20 mM DMSO stock solutions containing 100 mM trifluoroacetic acid (5 equivalents). Sulfonyl acetic acid derivatives are shelf stable as solid at rt for long time as reported by Griesbrecht et al. (Synlett 2010:374) or Faucher et al. (J. Med. Chem. 2004; 47:18).
(§2) LXR Gal4 Reporter Transient Transfection Assays
(§3) LXRα and LXRβ activity status was determined via detection of interaction with coactivator and corepressor proteins in mammalian two-hybrid experiments (M2H). For this, via transient transfection the full length (FL) proteins of LXRα (amino acids 1-447; NP005684; SEQ ID NO:7) or LXRβ-(amino acids 1-461; NP009052; SEQ ID NO:8) or the ligand-binding domains (LBD) of LXRα (amino acids 155-447 SEQ ID NO:3) or LXRβ (amino acids 156-461; SEQ ID NO:4) were expressed from pCMV-AD (Stratagene) as fusions to the transcriptional activation domain of NFkB. As cofactors, domains of either the steroid receptor coactivator 1 (SRC1; amino acids 552-887; SEQ ID NO:5) or of the corepressor NCoR (amino acids 1903-2312 SEQ ID NO:6) were expressed as fusions to the DNA binding domain of the yeast transcription factor GAL4 (from pCMV-BD; Stratagene). Interaction was monitored via activation of a coexpressed Firefly Luciferase Reporter gene under control of a promoter containing repetitive GAL4 response elements (vector pFRLuc; Stratagene). Transfection efficiency was controlled via cotransfection of constitutively active pRL-CMV Renilla reniformis luciferase reporter (Promega). HEK293 cells were grown in minimum essential medium (MEM) with 2 mM L-glutamine and Earle's balanced salt solution supplemented with 8.3% fetal bovine serum, 0.1 mM non-essential amino acids, 1 mM sodium pyruvate, at 37° C. in 5% CO2. 3.5×10^4 cells/well were plated in 96-well cell culture plates in growth medium supplemented with 8.3% fetal bovine serum for 16-20 h to ˜90% confluency. For transfection, medium was taken off and LXR and cofactor expressing plasmids as well as the reporter plasmids are added in 30 μL OPTIMEM/well including polyethylene-imine (PEI) as vehicle. Typical amounts of plasmids transfected/well: pCMV-AD-LXR (5 ng), pCMV-BD-cofactor (5 ng), pFR-Luc (100 ng), pRL-CMV (0.5 ng). Compound stocks were prepared in DMSO, prediluted in MEM to a total volume of 120 μL, and added 4 h after addition of the transfection mixture (final vehicle concentration not exceeding 0.2%). Cells were incubated for additional 16 h, lysed for 10 min in 1× Passive Lysis Buffer (Promega) and Firefly and Renilla luciferase activities were measured sequentially in the same cell extract using buffers containing D-luciferine and coelenterazine, respectively. Measurements of luminescence were done in a BMG-Iuminometer.

[2] = target: T2, GST-LXRβ ligand-binding domain (Homo sapiens, UniProt P55055, DUP175-175); test: TR-FRETβ activity assay (LXRβ-LBD / NCoA3 coactivator peptide, prestimulated with 24(S)-25-epoxycholesterol); type: biochemical; design: key to behavior in FRET assay: ag=agonist; ia=inverse agonist; conditions: for EC50: 1 μM 24(S)-25-epoxycholesterol as prestimulating agonist, read-out: FRETβ activity range (EC50); for behavior in FRET assay: agonist or inverse agonist
T2 construct: amino acids 156-461; NP009052; made in house; host or cells: E. coli
T2 sequence (P55055 with tags, fused parts or gaps DUP175-175): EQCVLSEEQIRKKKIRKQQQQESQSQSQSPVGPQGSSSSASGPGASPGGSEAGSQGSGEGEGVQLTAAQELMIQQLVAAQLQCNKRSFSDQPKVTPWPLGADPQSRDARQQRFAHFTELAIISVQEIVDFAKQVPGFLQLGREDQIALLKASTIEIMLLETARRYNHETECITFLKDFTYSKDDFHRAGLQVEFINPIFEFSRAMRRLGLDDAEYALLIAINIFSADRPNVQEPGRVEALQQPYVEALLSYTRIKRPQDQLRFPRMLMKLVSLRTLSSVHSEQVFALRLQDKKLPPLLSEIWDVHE
Method: The tested compounds were usually dissolved, tested and stored as 20 mM stock solutions in DMSO. […] Sulfonyl acetic acid derivatives are shelf stable as solid at rt for long time as reported by Griesbrecht et al. (Synlett 2010:374) or Faucher et al. (J. Med. Chem. 2004; 47:18). TR-FRETβ Activity Assay Recombinant GST-LXRβ ligand-binding domain (LBD; amino acids 156-461; NP009052; SEQ ID NO:2) was expressed in E. coli and purified via gluthatione-sepharose affinity chromatography. N-terminally biotinylated NCoA3 coactivator peptide (SEQ ID NO:1) was chemically synthesized (Eurogentec). […] Finally, a detection mix was added containing anti GST-Tb cryptate (CisBio; 610SAXLB) and Streptavidin-XL665 (CisBio; 610SAXLB) as fluorescent donor and acceptor, respectively, as well as the coactivator peptide and LXRβ-LBD protein (SEQ ID NO:2). The reaction was mixed thoroughly, equilibrated for 1 h at 4° C. and vicinity of LXRβ and coactivator peptide was detected by measurement of fluorescence in a VictorX4 multiplate reader (PerkinElmer Life Science) using 340 nm as excitation and 615 and 665 nm as emission wavelengths. Assays were performed in triplicates. Final Assay Concentrations of Components: 240 mM KCl, 1 μg/μL BSA, 0.002% Triton-X-100, […] anti GST-Tb cryptate, 2.5 ng/μL Streptavidin-XL665, coactivator peptide (400 nM), LXRβ protein ([…], i.e. 76 nM)

[3] = target: T3, LXRβ full length (FL) (Homo sapiens, UniProt P55055, DUP175-175); test: LXR Gal4 reporter transient transfection assay (M2H), Gal4β FL; type: cell-based; conditions: HEK293 cells; read-out: M2H Gal4β FL activity range (EC50)
T3 construct: the full length (FL) proteins of LXRα (amino acids 1-447); NP005684; NP009052; expressed in transfected cells; host or cells: HEK293
T3 sequence (P55055 with tags, fused parts or gaps DUP175-175): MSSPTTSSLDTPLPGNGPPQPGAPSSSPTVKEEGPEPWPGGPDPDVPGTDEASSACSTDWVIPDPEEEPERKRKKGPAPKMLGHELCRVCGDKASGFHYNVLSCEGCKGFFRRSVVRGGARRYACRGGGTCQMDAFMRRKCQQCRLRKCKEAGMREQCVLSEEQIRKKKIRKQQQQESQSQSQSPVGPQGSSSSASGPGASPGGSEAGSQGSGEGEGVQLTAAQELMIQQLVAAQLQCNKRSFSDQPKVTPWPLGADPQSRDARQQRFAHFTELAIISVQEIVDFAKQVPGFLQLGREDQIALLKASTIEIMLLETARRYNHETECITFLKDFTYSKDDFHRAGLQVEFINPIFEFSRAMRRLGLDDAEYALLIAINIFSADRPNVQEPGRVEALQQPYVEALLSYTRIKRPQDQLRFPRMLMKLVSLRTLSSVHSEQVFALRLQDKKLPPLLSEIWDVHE
Method: as §1, §2, §3

EC50 [1] | EC50 [2] | behavior in FRET assay [2] | EC50 [3] | SMILES
< 100 nM | 100 to 1000 nM | ag | < 100 nM | Cc1ccc2cccnc2c1S(=O)(=O)N(Cc1ccc(-c2cccc(C(C)(C)C(=O)NO)c2)cc1)Cc1ccc(C(F)(F)F)o1 [Example 30, N-Hydroxy-2-methyl-2-(4′-(((7-methyl-N-((5-(trifluoromethyl)furan-2-yl)methyl)quinoline)-8-sulfonamido)methyl)-[1,1′-biphenyl]-3-yl)propanamide]
1000 to 10000 nM | 1000 to 10000 nM | ia | 100 to 1000 nM | Cc1ccc(S(=O)(=O)N(Cc2ccc(-c3cccc(S(=O)(=O)CC(=O)O)c3)cc2)Cc2ccc(C(F)(F)F)o2)c(C)c1 [10/12]
1000 to 10000 nM | 1000 to 10000 nM | ag | 1000 to 10000 nM | COc1cc(C)cc(C)c1S(=O)(=O)N(Cc1ccc(-c2cccc(S(=O)(=O)CC(=O)O)c2)cc1)Cc1ccc(C(F)(F)F)o1 [10/8]
1000 to 10000 nM | 1000 to 10000 nM | ia | 1000 to 10000 nM | Cc1cc(C)c(S(=O)(=O)N(CCc2ccc(C(F)(F)F)o2)Cc2ccc(-c3cccc(S(=O)(=O)CC(=O)O)c3)cc2)c(C)c1 [Example 17/1]
1000 to 10000 nM | 1000 to 10000 nM | ia | 1000 to 10000 nM | Cc1cc(C)c(S(=O)(=O)N(Cc2ccc(-c3cccc(S(=O)(=O)CC(=O)O)c3)cc2)Cc2csc(C(F)(F)F)c2)c(C)c1 [11/10]
1000 to 10000 nM | > 10000 nM | ia | 1000 to 10000 nM | COc1cccc(CN(Cc2ccc(-c3cccc(S(=O)(=O)CC(=O)O)c3)cc2)S(=O)(=O)c2c(C)cc(C)cc2C)c1 [11/3]
< 100 nM | < 100 nM | ia | < 100 nM | Cc1cc(C(F)(F)F)oc1CN(Cc1ccc(-c2cccc(C(C)(C)C(=O)O)c2)cc1)S(=O)(=O)c1c(C)ccc2ccccc12 [17/3]
100 to 1000 nM | 1000 to 10000 nM | ia | 100 to 1000 nM | Cc1cc(C)c(S(=O)(=O)N(Cc2ccc(-c3cccc(S(=O)(=O)C(C)C(=O)O)c3)cc2)Cc2ccc(C(F)(F)F)o2)c(C)c1 (stereo not shown) [Example 5/1]
< 100 nM | 100 to 1000 nM | ia | < 100 nM | Cc1ccc2ccccc2c1S(=O)(=O)N(Cc1ccc(-c2cccc(C(C)(C)C(=O)O)c2)cc1)C1CCc2ccc(C(F)(F)F)cc21 (stereo not shown) [17/2]
< 100 nM | < 100 nM | ia | < 100 nM | Cc1sc2ccccc2c1S(=O)(=O)N(Cc1ccc(-c2cccc(C(C)(C)C(=O)O)c2)cc1)Cc1ccc(C(F)(F)F)o1 [10/18]
1000 to 10000 nM | 1000 to 10000 nM | ia | 100 to 1000 nM | Cc1cc(C)c(S(=O)(=O)N(Cc2ccc(-c3cccc(S(=O)(=O)CC(=O)O)c3)cc2)Cc2ccc(C(F)F)o2)c(C)c1 [10/13]
1000 to 10000 nM | 1000 to 10000 nM | ia | 100 to 1000 nM | Cc1cc(C)c(S(=O)(=O)N(Cc2ccc(-c3cccc(S(=O)(=O)CC(=O)O)c3)cc2)Cc2cccc(OC(F)F)c2)c(C)c1 [11/15]
1000 to 10000 nM | 1000 to 10000 nM | ia | 100 to 1000 nM | O=C(O)CS(=O)(=O)c1cccc(-c2ccc(CN(Cc3ccc(C(F)(F)F)o3)S(=O)(=O)c3cccc4ccccc34)cc2)c1 [10/9]
100 to 1000 nM | 1000 to 10000 nM | ia | 100 to 1000 nM | Cc1cc(C)c(S(=O)(=O)N(Cc2ccc(-c3cc(F)c(CO)c(S(=O)(=O)CC(=O)O)c3)cc2)Cc2ccc(C(F)(F)F)o2)c(C)c1 [Example 9, 2-((5-Fluoro-4-(hydroxymethyl)-4′-(((2,4,6-trimethyl-N-((5-(trifluoromethyl)furan-2-yl)methyl)phenyl)sulfonamido)methyl)-[1,1′-biphenyl]-3-yl)sulfonyl)acetic acid]
100 to 1000 nM | 1000 to 10000 nM | ia | 100 to 1000 nM | COc1ccc(S(=O)(=O)N(Cc2ccc(-c3cccc(S(=O)(=O)CC(=O)O)c3)cc2)Cc2ccc(C(F)(F)F)o2)c2c1CCCC2 [10/10]
< 100 nM | < 100 nM | ia | < 100 nM | Cc1ccc2ncccc2c1S(=O)(=O)N(Cc1ccc(-c2cccc(C(C)(C)C(=O)O)c2)cc1)Cc1ccc(C(F)(F)F)o1 [10/15]

From patent US20200115357A1, “LIVER X RECEPTORS (LXR) MODULATORS” (Phenex-FXR GmbH, priority 2017, published 2020)
